One molecule from US6838557B1, “Process for making a chelating agent for labeling biomolecules using preformed active esters” (Board of Regents The University of Texas System, priority 2002, dated 2005) can be followed below.

One may read the half-life as the time in which the quantity being followed falls by half.

The data set in a line: Stability of DOTA mono-NHS in water by 1H NMR (rate of change in the ratio Afree/Abound). The conditions noted are these: neutral pH, read-out: half-life for hydrolysis. Format: physicochemical.

Description: For example, ^1H NMR spectra, such as that illustrated in FIG. 1, were used to measure the ratio of the areas (Afree/Abound) of the ^1H NMR signal corresponding to NHS free in solution (δfree −2.6 ppm; Free NHS), relative to the signal corresponding to NHS covalently bound to DOTA (δbound −2.85 ppm; Bound NHS). […] Similar results were obtained by measuring the relative areas of the ^13C signals corresponding to free and bound NHS (δbound −25.5 ppm and δfree −25.2 ppm; FIG. 2).
Similar to that described above, the NMR data was used to estimate the percentage of free NHS. […] The stability of DOTA mono-NHS in water was also assessed using ^1H NMR by measuring the rate of change in the ratio Afree/Abound at neutral pH.

On to `O=C(O)CN1CCN(CC(=O)O)CCN(CC(=O)ON2C(=O)CCC2=O)CCN(CC(=O)O)CC1` [DOTA mono-NHS, 1,4,7,10-tetraazacyclododecane-1,4,7,10-tetra(aceticacid)-10-mono(N-hydroxysuccinimidyl ester)], for which the half-life was ~30 min.
